Measured values taken from US8637237B2, “Methods, compositions, and systems for the identification of species-specific or developmental stage-specific insecticides” (The University of North Carolina at Greensboro, priority 2003, dated 2014).

Target: T1, GGEc (Drosophila melanogaster, UniProt P34021)
T1 construct: were replaced by EcR LBD amino acids (EcR amino acids 329 to 878); expressed in transfected cells; host or cells: CHO
T1 sequence (P34021 329-878): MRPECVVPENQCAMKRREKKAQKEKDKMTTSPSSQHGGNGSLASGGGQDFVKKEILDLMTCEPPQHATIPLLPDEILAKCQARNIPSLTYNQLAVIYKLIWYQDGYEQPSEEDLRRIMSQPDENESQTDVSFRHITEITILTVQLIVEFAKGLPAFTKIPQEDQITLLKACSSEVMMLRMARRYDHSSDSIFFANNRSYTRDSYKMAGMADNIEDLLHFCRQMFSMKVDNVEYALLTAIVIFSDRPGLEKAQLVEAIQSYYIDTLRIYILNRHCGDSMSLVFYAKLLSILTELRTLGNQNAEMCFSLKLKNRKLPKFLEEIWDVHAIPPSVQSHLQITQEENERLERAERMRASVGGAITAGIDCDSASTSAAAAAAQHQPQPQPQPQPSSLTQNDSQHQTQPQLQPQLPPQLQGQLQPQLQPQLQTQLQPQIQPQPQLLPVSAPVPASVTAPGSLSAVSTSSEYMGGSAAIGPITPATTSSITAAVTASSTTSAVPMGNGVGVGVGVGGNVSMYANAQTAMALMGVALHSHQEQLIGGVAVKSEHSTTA
Assay: GGEc chimera (GR amino terminus and DBD, EcR LBD) with RXR in CHO cells
Assay type: cell-based
Conditions: 20 μM juvocimene; 0.2 μM muristerone A
Source text: For these experiments, the luciferase reporter construct was used. To obviate influences from other transcription factors, results were normalized using a reporter plasmid from which CAT expression is driven by a minimal promoter consisting of dimerized GREs linked upstream of a 13 base pair TATA box DNA element derived from the adenovirus E1B gene.
In this experiment, GGEc and RXR were transfected into CHO cells with either a CAT or a luciferase reporter plasmid containing 1.5 kilobase pairs of the glucocorticoid-inducible mouse mammary tumor virus (MTV) promoter.
In these experiments, CHO cells were transfected with a GGEc-expressing plasmid, a mouse RXRα expression plasmid, and an adenovirus E1b TATA-(GRE)2-CAT reporter plasmid. The GGEc plasmid was eliminated from DNA mixtures added to cells transfected in parallel. CAT activities were measured from lysates of cells from triplicate wells treated with ethanol vehicle, juvocimene (20 μM), muristerone A (0.2 μM), or both.
In these experiments, CHO cells were transfected with DNAs as described above but ubiquinone-2 (10 μM) was substituted for juvocimene.

## juvocimene
  GGEc activity increase over MUR: 7 times
